Values joined by “and” are separate entries in the source; they are usually repeats but may differ in a detail not shown here. Identical values can stand only once. “Also recorded” adds a separate entry of the source.
Experiments:
expression of ELAM = test: Cell-ELAM (E-selectin) assay in LPS/IL-1β stimulated endothelial cells; format: cell-based; settings: for ELAM production (in words): activated endothelial cells
Description: Cell-ELAM Assay. Endothelial-Leukocyte Adhesion Molecule (ELAM), also known as E-selectin, is expressed on the surface of endothelial cells. In this assay, lipopolysaccharide (LPS) and IL-1β are used to stimulate the expression of ELAM; test agents are tested for their abilities to reduce this expression, in accordance with studies showing that reduction of leukocyte adhesion to endothelial cell surface is associated with decreased cellular damage (e.g., Takada, M., Et al., Transplantation 64: 1520–25, 1997; Steinberg, J. B., et al., J. Heart Lung Trans. 13:306–313, 1994).
Endothelial cells may be selected from any of a number of sources and cultured according to methods known in the art; including, for example, coronary artery endothelial cells, human brain microvascular endothelial cells (HBMEC; Hess, D. C., et al., Neurosci. Lett. 213(1): 37–40, 1996), or lung endothelial cells. Cells are conveniently cultured in 96-well plates. Cells are stimulated by adding a solution to each well containing 10 μg/ml LPS and 100 pg/ml IL-1β for 6 hours in the presence of test agent (specific concentrations and time may be adjusted depending on the cell type). Treatment buffer is removed and replaced with pre-warmed Fixing Solution® (100 μl/well) for 25 minutes at room temperature. Cells are then washed 3×, then incubated with Blocking Buffer (PBS+2% FBS) for 25 minutes at room temperature. Blocking Buffer containing Monoclonal E-Selectin Antibody (1:750, Sigma Catalog #S-9555) is added to each well. Plates are sealed and stored at 4° overnight. Plates are washed 4× with 160 μL Blocking Buffer per well. Second Antibody-HRP diluted 1:5000 in Blocking Buffer is then added (100 μL/well), and plates are incubated at room temperature (protected from light) for two hours. Plates are then washed 4× with Blocking Buffer before addition of 100 μL of ABTS Substrate solution at room temperature (Zymed, Catalog #00–2024). Wells are allowed to develop for 35 minutes, before measurement at 402 nm in a Fluoroskan® Reader with shake program for 10 seconds. Positive results are recorded as a decrease in ELAM concentration in tested wells, as compared to control wells.

[1] = tested on: CRP production in human Hep3B cells; test: Human Hep3B cells CRP assay (IL-1β, IL-6 and dexamethasone stimulated, CRP ELISA); format: cell-based; settings: for reducing CRP production/levels (in words): Hep3B cells stimulated with IL-1B, IL-6 and dexamethasone
Source text: A. Human Hep3B Cells—CRP assay. Hep3B Cell Line is obtained from the American Type Culture Collection (ATCC Catalog No. HB-8064). The Hep3B cell line was derived from liver tissue of […]. The cells are epithelial in morphology and produce tumors in nude mice. The cells produce α-fetoprotein, hepatitis B surface antigen, albumin, α-2-macroglobulin, α-1-antitrypsin, transferrin, plasminogen, complement C3 and β-lipoprotein (Knowles B B, et al., Science, 1980, 209:497–499). This cell line has been widely used to study hepatocyte cytokine and acute phase protein release (e.g., Damtew B, et al., 1993, J Immunol 150:4001–4007).
HEP3B cells are grown in Minimum Essential Medium (MEM; GIBCO) supplemented with 10% Fetal Bovine Serum (FBS; Hyclone), 1× Penicillin/Streptomycin (GIBCO, Cat #. 15140-122) and 0.1 mM non-essential amino acids (GIBCO, Catalog No. 11140-050). Cells are thawed and transferred to warm medium according to standard methods known in the art.
Cells are incubated in flasks at 37° C. with 5% CO2 in an air atmosphere incubator. HEP3B growth media is changed every 2 days until the cells reach 70–80% confluence (approx. 3–4 days). For assay, the cells are transferred to 96-well plates, seeded at 5000 cells per well in culture media, and left to grow for 7 days in a 37° C. incubator (air supplemented with 5% CO2). Media is replaced daily until assay.
Test compounds are diluted into “Stimulus Buffer” (MEM medium containing 0.1 mM non-essential amino acids, 1× penicillin/streptomycin, 10% FBS with 10 ng/ml IL-1β, 20 ng/ml IL-6 and 1 μM dexamethasone. Media is removed from the cells and is replaced with 200 μl of test dilution. Cells are returned to the incubator for three days at 37° C. CRP ELISA is then performed on supernatant from the cells, as described below.
Costar EIA/RIA plates are coated with rabbit anti-human CRP (DAKO) diluted 1:4000 in carbonate buffer (100 μl/well) for 45 minutes at 37° C. Plates are then washed 5× with CRP washing buffer (50 mM Tris-HCI, 0.3M NaCl, […], pH 8.0) using an automatic plate washer. Plates may be dried, covered and refrigerated until use. Supernatant (100 μl) is removed from each well of the test plates and added to the corresponding well of a precoated ELISA plate.
100 μl HRP-conjugated rabbit anti-human CRP (DAKO) diluted 1:500 (in CRP wash buffer) is added to each well, followed by incubation for 30 minutes at 37° C. […] Finally, 50 μl of 1M H2SO4 is added to each well and absorbance at 450 nm is immediately measured in a microtiter spectrophotometer.
CRP measured as above is normalized to cell count per well, using a cell viability assay, such as the Cell Tracker Green assay. […] Plates are immediately read using a Fluoroskan® flourometer with a 485 excitation/538 emission filter pair.

[2] = tested on: IL-6 present in edematous fluid; test: Carrageenan-induced rat paw edema assay, IL-6 in edematous fluid; format: in vivo; settings: rats
[3] = tested on: inflammation secondary to exposure to arachidonic acid; test: Arachidonic acid mouse ear inflammation model; format: in vivo; settings: topical to left ear, CD-1 mice, one hour after treatment
Description: This assay measures the ability of test compounds to prevent or reduce inflammation secondary to oxazolone or arachidonic acid.
A. Arachidonic acid. Albino male CD-1 mice, 7–9 weeks old were used in this test. A 20% (w/v) arachidonic acid solution in acetone is prepared. Twenty microliters of the arachidonic acid solution is applied to the dorsal left ear of the mouse. Immediately thereafter, test compounds (20 μL in 70% ethanol/30% propylene glycol) are applied to the left ear. The untreated right ears served as control. Mice are sacrificed by CO2 inhalation, one hour after treatment. The left and right ears are removed and 7 mm punch biopsies taken from each. The punch biopsies are weighed, and the differences calculated. […] Other non-alpha-tocopherol enriched tocopherol compositions can be tested for their ability to reduce inflammation in this model.

EC50 (expression of ELAM; endothelial cells, LPS and IL-1β, read-out: EC50 reduce the expression of ELAM)	SMILES	ELAM production (in words) (expression of ELAM)	reducing CRP production/levels (in words) [1]	activity in ELAM assay (expression of ELAM; at 1000 micromolar)	IL-6 levels in the edematous fluid (in words) ([2]; 10–100 mg/kg oral pretreatment over 3 days)	reduction in IL-6 present in edematous fluid ([2]; 3 days, 10–100 mg/kg/day oral pre-treatment, p<0.001)	reduce inflammation secondary to arachidonic acid (ear punch weight difference) [3]	reducing CRP levels ([1]; at about 3 to about 10 micromolar, Hep3B cells)
300 to 1000 µM and 600 µM	Cc1cc(O)cc2c1O[C@](C)(CCC[C@H](C)CCC[C@H](C)CCCC(C)C)CC2 (relative stereo) [delta-tocopherol, [2R-[2R*(4R*,8R*)]]-3,4-dihydro-2,8-dimethyl-2-(4,8,12-trimethyltridecyl)-2H-1-benzo-pyran-6-ol]	decreased	effective; also recorded: able to reduce	–	–	–	–	–
–	Cc1c(C)c2c(c(C)c1O)CC[C@@](C)(CCC[C@H](C)CCC[C@H](C)CCCC(C)C)O2 (relative stereo) [alpha-tocopherol, [2R-2R*(4R*,8R*)]-3,4-dihydro-2,5,7,8-tetramethyl-2-(4,8,12-trimethyltridecyl)-2H-1-benzopyran-6-ol, reference compound]	not	–	not active	–	–	–	–
–	Cc1c(O)cc2c(c1C)OC(C)(CCCC(C)CCCC(C)CCCC(C)C)CC2 (stereo not shown) [gamma-tocopherol, 3,4-dihydro-2,7,8-trimethyl-2-(4,8,12-trimethyltridecyl)-2H-1-benzyopyran-6-ol]	decreased	effective; also recorded: able to reduce	–	significantly reduced	42	able to reduce inflammation	–
–	Cc1cc(O)c(C)c2c1OC(C)(CCCC(C)CCCC(C)CCCC(C)C)CC2 (stereo not drawn) [beta-tocopherol, 3,4-dihydro-2,5,8-trimethyl-2-(4,8,12-trimethyltridecyl)-2H-1-benzopyran-6-ol]	decreased	effective; also recorded: able to reduce	–	–	–	–	about 50%

Source: patent US7081476B2, “Tocopherol enriched compositions for reducing IL6 levels” (Galileo Pharmaceuticals, Inc., priority 2001, dated 2006)
